Results on 3 substances are retold here after patent US9549945B2, “Use of alkylated semi-synthetic glycosaminoglycosan ethers for the treatment of inflammation” (University of Utah Research Foundation, priority 2008, dated 2017).

One data set deals with Xa. Description: Anti-Xa anticoagulant activity. The class given is biochemical.
Another data set has as its system IIa. Description: Anti-IIa anticoagulant activity. The class given is biochemical.
In data set [1] the target is T1, Hageman factor (Factor XII) (Homo sapiens, UniProt P00748).
T1 construct: from tissue; host or cells: pooled human plasma
T1 sequence (P00748 20-615): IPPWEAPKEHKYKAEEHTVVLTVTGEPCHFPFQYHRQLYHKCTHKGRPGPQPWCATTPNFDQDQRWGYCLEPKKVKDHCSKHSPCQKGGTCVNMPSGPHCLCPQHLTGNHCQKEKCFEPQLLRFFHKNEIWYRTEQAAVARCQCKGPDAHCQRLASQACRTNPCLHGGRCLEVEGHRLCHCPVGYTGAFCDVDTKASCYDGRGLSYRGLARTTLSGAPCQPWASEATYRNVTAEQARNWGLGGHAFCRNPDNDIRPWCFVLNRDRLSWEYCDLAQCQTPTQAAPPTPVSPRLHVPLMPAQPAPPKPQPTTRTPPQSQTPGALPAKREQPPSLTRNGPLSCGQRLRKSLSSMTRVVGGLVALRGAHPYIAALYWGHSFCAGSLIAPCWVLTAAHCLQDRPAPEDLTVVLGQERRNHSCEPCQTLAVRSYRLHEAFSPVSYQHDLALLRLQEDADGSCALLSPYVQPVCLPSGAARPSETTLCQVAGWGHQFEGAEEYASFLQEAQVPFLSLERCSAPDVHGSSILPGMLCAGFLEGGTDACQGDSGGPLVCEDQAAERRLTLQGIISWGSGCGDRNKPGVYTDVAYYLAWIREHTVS
Description: Hageman factor (Factor XII) activation in pooled human plasma, amidolytic activity. The class given is biochemical. Particulars: FIG. 19. As to the method: Nat Biotech 26:669-675, 2008). […] Amidolytic activity specific for active kallikrein was determined by adding D-Pro-Phe-Arg-p-NA and following change in absorbance at […].

The subject of data set [2] is LL-37 induced skin inflammation. Description: SAGE topical treatment in LL-37 rosacea model. Particulars: topical administration. The class given is in vivo, Balb/c mice. As to the method:
Balb/c mice were shaved in time from LL37 exposure on area of skin on the back. We then began topical application of a hyaluronan-cased emollient containing 5% SAGEs (active emollient) or hyaluronic acid based emollient alone to this area of skin every 12 hours. Twenty-four hours later, we injected 40 μL of vehicle (PBS) or cationic peptide (at 320 μM concentration) subcutaneously into the shaved skin in the manner described previously. Injections and topical emollient applications were repeated every 12 h thereafter. Forty-eight hours after the initial injection (four injections in total), animals were lightly anesthetized as described previously. […] The intensity of erythema was assessed as a redness score (from 1 to 5), and the area of erythema was measured with calipers. […]
For each mouse, tissue biopsies (6 mm diameter hole punch) were taken immediately, weighted, frozen and stored at −80° C. Tissue MPO activity was measured using a method by Suzuki et. al. (Suzuki K, Ota H, Sasagawa S, Sakatani T, Fujikura T. Assay method for myeloperoxidase in human polymorphonuclear leukocytes. Anal Biochem 132:345-352, 1983) as modified by Young et. al. (Young J M, Spires D A, Bedord C J, Wagner B, Ballaron S J, De oung LM. The mouse ear inflammatory response to topical arachidonic acid. J Invest Dermatol 82:367-371, 1984). […] MPO enzyme activity was assessed at an absorbance wavelength of 630 nm. […]

Another data set deals with ARPE-19 cells. Description: AGE-BSA induced apoptosis of ARPE-19 cells (Live/Dead stain). Format: cell-based, human. Particulars: AGE-BSA 25 μM, 40 h; test substance 200 μM. As to the method: The ability of AGE products to induce RPE cell apoptosis was investigated. ARPE-19 cells were grown to confluence on round coverslips, then transferred to new dishes for exposure to 25 μM AGE-BSA for 40 h. Apoptosis was then assayed with Molecular Probes Fixable Live/Dead Cell Stain Kit (L11101, Eugene, Oreg.). […] Nuclei are stained […] with DAPI; dead cells are stained green. A. BSA control. Some dead cells are noted at the edges of the coverslip, but live and dead cells are interspersed at the interface. B. AGE-BSA (25 μM). Significant cell death is seen around the edges, and the boundary between live and dead cells is stark. C. AGE-BSA (25 μM)+ODSH (200 μM).

Data set [3] relates to RAGE expression in ARPE-19 cells. Description: AGE (CML-BSA)-induced RAGE expression in ARPE-19 cells (immunoblot). The class given is cell-based, human. Particulars: ARPE-19 cells on CML-BSA coated plates. The procedure:
Experiments studying the biology of RAGE in cultured RPE cells using the ARPE-19 human RPE cell line were conducted. As shown in immunoblots (FIG. 17), ARPE-19 cells express at least 4 isoforms of RAGE ranging from 45-50 kDa in cell lysates, and secrete these isoforms into conditioned media. […] Because RAGE ligation activates the transcription factor NF-κB, enhanced expression of RAGE greatly promotes pro-inflammatory signaling. […] This would prevent “feed-forward” pro-inflammatory increases in RAGE expression itself by RAGE ligation.
(A western blot detects proteins with antibodies after separation by electrophoresis.)

“Also recorded” adds a separate entry of the source.

Take heparin: the anti-Xa anticoagulant activity in the data set with Xa was 150 U/mg. The substance further returned an anti-IIa anticoagulant activity with IIa of 150 U/mg. Besides, the “concentration that activates Factor XII” value in data set [1] amounted to 400 ng/mL.
For “Hyaluronic acid [HA, reference compound]”, in data set [2], the “MPO activities in LL-37 rosacea model, SAGE vs. HA” value is “did not alleviate” and the “inflammation in LL-37 rosacea model, SAGE vs. HA” value is given as “did not alleviate inflammation”.
In the case of 2-O, 3-O desulfated heparin [ODSH], the AGE-induced apoptosis entry with ARPE-19 cells was “some protection but significant apoptosis still occurs; also recorded: reduced”. The “up-regulation of RAGE expression by CML-BSA” value in data set [3] is given as “prevented up-regulation of RAGE expression”.
